Laboratory results from US20150337013A1, “NOVEL ANTIBACTERIAL AGENTS FOR THE TREATMENT OF GRAM POSITIVE INFECTIONS” (priority 2008, published 2015).
Read-outs that look alike come from different tables or passages of the source.

Legend:
[1] = tested on: Staphylococcus aureus SAU.42 (ATCC 29213); assay type: cell-based
Protocol: (§1) Compounds according to Formula I were tested for antimicrobial activity against a panel of organisms. Aerobic organisms, Staphylococcus aureus, Enterococcus faecalis and E. faecium, were tested by broth microdilution according to Clinical and Laboratory Standards Institute (CLSI) document M7-A7 (Clinical and Laboratory Standards Institute. Methods for Dilution Antimicrobial Susceptibility Tests for Bacteria that Grow Aerobically; Approved Standard—Seventh Edition. CLSI document M7-A7 [ISBN 1-56238-587-9]. Clinical and Laboratory Standards Institute, 940 West Valley Road, Suite 1400, Wayne, Pa. 19087-1898 USA, 2006) with modifications as described below. Mueller Hinton Broth (MHBc) was supplemented with 50 mg/L calcium (equivalent to human physiological levels of calcium) and assay plates were incubated 18-20 hours at 37° C. with aeration (200 rpm).
(§2) In all cases the final concentration of dimethyl sulfoxide incubated with cells is less than or equal to 1%. For minimum inhibitory concentration (MIC) calculations, 2-fold dilutions of compounds were added to wells of a microtiter plate containing 5×10^5 bacteria in a final volume of 100 μL of media. Following incubation, (18-20 hours at 37° C. with aeration at 200 rpm) growth was confirmed visually by placing plates over a viewing apparatus (stand with a mirror underneath) and then the optical density (OD600) was measured using a SpectraMax 340PC^384 plate reader. Growth was defined as turbidity that could be detected with the naked eye or achieving minimum OD600of 0.1. MIC values (in μg/mL) were defined as the lowest concentration producing no visible turbidity.

[2] = tested on: Enterococcus faecium EFM.384, Daptomycin resistant mutant (14-A); assay type: cell-based; settings: MHBc with 50 mg/L calcium, 18-20 hours at 37° C.
Protocol: as §1, §2

[3] = tested on: Enterococcus faecalis EFS.312, Daptomycin resistant mutant (EFA); assay type: cell-based; settings: MHBc with 50 mg/L calcium, 18-20 hours at 37° C.
Protocol: as §1, §2

[4] = tested on: Staphylococcus aureus SAU.399 (ATCC 43300), Methicillin and Oxacillin Resistant; assay type: cell-based
Protocol: as §1, §2

[5] = tested on: Staphylococcus aureus SAU.278, Daptomycin resistant mutant (D10); assay type: cell-based; settings: MHBc with 50 mg/L calcium, 18-20 hours at 37° C.
Protocol: as §1, §2

[6] = tested on: Enterococcus faecalis EFS.201 (ATCC 49452); assay type: cell-based
Protocol: as §1, §2

[7] = tested on: Enterococcus faecium EFM.14 (ATCC 6569); assay type: cell-based
Protocol: as §1, §2

[8] = tested on: Clostridium difficile
[9] = MHBc with 50 mg/L calcium, 18-20 hours at 37° C.

Row | Compound | Sa42 MIC ([1]; ATCC 29213) [µg/mL] | Efm384 MIC [2] [µg/mL] | Efs312 MIC [3] [µg/mL] | Sa399 MIC ([4]; ATCC 43300) [µg/mL] | Sa278 MIC [5] [µg/mL] | Efs201 MIC ([6]; ATCC 49452) [µg/mL] | Efm14 MIC ([7]; ATCC 6569) [µg/mL] | C. diff MIC90 [8] [µg/mL] | Sa42 MIC [1, 9] [µg/mL] | Sa399 MIC [4, 9] [µg/mL] | Efs201 MIC [6, 9] [µg/mL] | Efm14 MIC [7, 9] [µg/mL]
1 | C[C@H](CC(=O)O)[C@@H]1NC(=O)[C@@H](CO)NC(=O)CNC(=O)[C@H](CC(=O)O)NC(=O)[C@@H](C)NC(=O)[C@H](CC(=O)O)NC(=O)[C@H](CCCN)NC(=O)CNC(=O)[C@@H](NC(=O)[C@H](CC(=O)O)NC(=O)[C@@H](CC(N)=O)NC(=O)[C@H](Cc2c[nH]c3ccccc23)NC(=O)c2cc(-c3ccc(Cl)cc3)cs2)[C@@H](C)OC(=O)[C@H](CC(=O)c2ccccc2N)NC1=O [Compound 70] | 8 | >32 | >32 | 8 | >32 | >32 | >32 | 16 | – | – | – | –
2 | CCCCCCCc1ccc(NC(=O)N[C@@H](Cc2c[nH]c3ccccc23)C(=O)N[C@H](CC(N)=O)C(=O)N[C@@H](CC(=O)O)C(=O)N[C@@H]2C(=O)NCC(=O)N[C@@H](CCCN)C(=O)N[C@@H](CC(=O)O)C(=O)N[C@H](C)C(=O)N[C@@H](CC(=O)O)C(=O)NCC(=O)N[C@H](CO)C(=O)N[C@@H]([C@H](C)CC(=O)O)C(=O)N[C@@H](CC(=O)c3ccccc3N)C(=O)O[C@@H]2C)cc1 [Compound 51] | 0.125 | 4 | 8 | 0.125 | 1 | 0.25 | 0.5 | 0.5 | – | – | – | –
3 | C[C@H](CC(=O)O)[C@@H]1NC(=O)[C@@H](CO)NC(=O)CNC(=O)[C@H](CC(=O)O)NC(=O)[C@@H](C)NC(=O)[C@H](CC(=O)O)NC(=O)[C@H](CCCN)NC(=O)CNC(=O)[C@@H](NC(=O)[C@H](CC(=O)O)NC(=O)[C@@H](CC(N)=O)NC(=O)[C@H](Cc2c[nH]c3ccccc23)NC(=O)Cc2ccc(-c3ccccc3)cc2)[C@@H](C)OC(=O)[C@H](CC(=O)c2ccccc2N)NC1=O [Compound 66] | – | >32 | >32 | – | >32 | – | – | 8 | 8 | 8 | >32 | >32
4 | CCc1ccc(CCC(=O)N[C@@H](Cc2c[nH]c3ccccc23)C(=O)N[C@H](CC(N)=O)C(=O)N[C@@H](CC(=O)O)C(=O)N[C@@H]2C(=O)NCC(=O)N[C@@H](CCCN)C(=O)N[C@@H](CC(=O)O)C(=O)N[C@H](C)C(=O)N[C@@H](CC(=O)O)C(=O)NCC(=O)N[C@H](CO)C(=O)N[C@@H]([C@H](C)CC(=O)O)C(=O)N[C@@H](CC(=O)c3ccccc3N)C(=O)O[C@@H]2C)cc1 [Compound 29] | 8 | >32 | >32 | 8 | >32 | >32 | >32 | 16 | – | – | – | –
5 | CCCCCCC1CCC(c2ccc(C(=O)N[C@@H](Cc3c[nH]c4ccccc34)C(=O)N[C@H](CC(N)=O)C(=O)N[C@@H](CC(=O)O)C(=O)N[C@@H]3C(=O)NCC(=O)N[C@@H](CCCN)C(=O)N[C@@H](CC(=O)O)C(=O)N[C@H](C)C(=O)N[C@@H](CC(=O)O)C(=O)NCC(=O)N[C@H](CO)C(=O)N[C@@H]([C@H](C)CC(=O)O)C(=O)N[C@@H](CC(=O)c4ccccc4N)C(=O)O[C@@H]3C)cc2)CC1 (single isomer, unassigned) [54 isomer II] | 1 | – | – | 1 | – | 2 | 1 | 4 | – | – | – | –
6 | CC(C)Sc1ccc(-c2csc(C(=O)N[C@@H](Cc3c[nH]c4ccccc34)C(=O)N[C@H](CC(N)=O)C(=O)N[C@@H](CC(=O)O)C(=O)N[C@@H]3C(=O)NCC(=O)N[C@@H](CCCN)C(=O)N[C@@H](CC(=O)O)C(=O)N[C@H](C)C(=O)N[C@@H](CC(=O)O)C(=O)NCC(=O)N[C@H](CO)C(=O)N[C@@H]([C@H](C)CC(=O)O)C(=O)N[C@@H](CC(=O)c4ccccc4N)C(=O)O[C@@H]3C)c2)cc1 [Compound 55] | 0.5 | 8 | >32 | 0.25 | 4 | 2 | 2 | – | – | – | – | –
7 | CCCCCCCCC(=O)N[C@@H](Cc1c[nH]c2ccccc12)C(=O)N[C@H](CC(N)=O)C(=O)N[C@@H](CC(=O)O)C(=O)N[C@@H]1C(=O)NCC(=O)N[C@@H](CCCN)C(=O)N[C@@H](CC(=O)O)C(=O)N[C@H](C)C(=O)N[C@@H](CC(=O)O)C(=O)NCC(=O)N[C@H](CO)C(=O)N[C@@H]([C@H](C)CC(=O)O)C(=O)N[C@@H](CC(=O)c2ccccc2N)C(=O)O[C@@H]1C [Compound 1] | 8 | >32 | >32 | 2 | >32 | 32 | 32 | – | – | – | – | –
8 | CCCSc1ccc(-c2csc(C(=O)N[C@@H](Cc3c[nH]c4ccccc34)C(=O)N[C@H](CC(N)=O)C(=O)N[C@@H](CC(=O)O)C(=O)N[C@@H]3C(=O)NCC(=O)N[C@@H](CCCN)C(=O)N[C@@H](CC(=O)O)C(=O)N[C@H](C)C(=O)N[C@@H](CC(=O)O)C(=O)NCC(=O)N[C@H](CO)C(=O)N[C@@H]([C@H](C)CC(=O)O)C(=O)N[C@@H](CC(=O)c4ccccc4N)C(=O)O[C@@H]3C)c2)cc1 [Compound 56] | 2 | 32 | >32 | 2 | 8 | 8 | 8 | – | – | – | – | –
9 | CCCCCCOc1ccc(/C=C/C(=O)N[C@@H](Cc2c[nH]c3ccccc23)C(=O)N[C@H](CC(N)=O)C(=O)N[C@@H](CC(=O)O)C(=O)N[C@@H]2C(=O)NCC(=O)N[C@@H](CCCN)C(=O)N[C@@H](CC(=O)O)C(=O)N[C@H](C)C(=O)N[C@@H](CC(=O)O)C(=O)NCC(=O)N[C@H](CO)C(=O)N[C@@H]([C@H](C)CC(=O)O)C(=O)N[C@@H](CC(=O)c3ccccc3N)C(=O)O[C@@H]2C)cc1 [Compound 42] | – | 8 | – | – | 4 | – | – | 0.5 | 0.5 | 1 | 1 | 2
10 | CCCCCCCCCC(C)(C)C(=O)N[C@@H](Cc1c[nH]c2ccccc12)C(=O)N[C@H](CC(N)=O)C(=O)N[C@@H](CC(=O)O)C(=O)N[C@@H]1C(=O)NCC(=O)N[C@@H](CCCN)C(=O)N[C@@H](CC(=O)O)C(=O)N[C@H](C)C(=O)N[C@@H](CC(=O)O)C(=O)NCC(=O)N[C@H](CO)C(=O)N[C@@H]([C@H](C)CC(=O)O)C(=O)N[C@@H](CC(=O)c2ccccc2N)C(=O)O[C@@H]1C [Compound 12] | 4 | >32 | 32 | 2 | 8 | 16 | 8 | – | – | – | – | –
